# Calls of active or inactive are those of the source. The rule behind the calls is not given here.
# Tests used:
# Staphylococcus aureus [1] = test: Antimicrobial activity against Staphylococcus aureus 8235 selected after 4 times MIC pre-incubated for 1 hr by microdilution method; assay type: functional
# Staphylococcus aureus [2] = test: Bacteriostatic activity against Staphylococcus aureus isolate 8235 assessed as log reduction in bacterial count at 32 times MIC after 24 hrs by microdilution method; assay type: functional
# [3] = Cytotoxicity against human CCD-32Sk cells after 48 hrs by MTT assay; assay type: cell-based
# Staphylococcus aureus [4] = test: Antimicrobial activity against Staphylococcus aureus 8235 by microdilution method; assay type: functional
# [5] = tested on: Staphylococcus epidermidis; test: Antimicrobial activity against Staphylococcus epidermidis RP62A grown as biofilms by microdilution method; assay type: functional
# Streptococcus pyogenes = test: Antimicrobial activity against Streptococcus pyogenes by microdilution method; assay type: functional
# Staphylococcus aureus [6] = test: Antimicrobial activity against methicillin-susceptible Staphylococcus aureus ATCC 29213 grown as biofilms by microdilution method; assay type: functional
# Staphylococcus aureus [7] = test: Antimicrobial activity against methicillin-susceptible Staphylococcus aureus by microdilution method; assay type: functional
# Staphylococcus aureus [8] = test: Antimicrobial activity against methicillin-susceptible Staphylococcus aureus ATCC 29213 by microdilution method; assay type: functional
# Staphylococcus aureus [9] = test: Antimicrobial activity against methicillin-resistant Staphylococcus aureus ATCC 33591 by microdilution method; assay type: functional
# Staphylococcus aureus [10] = test: Antimicrobial activity against mupirocin- and methicillin-resistant Staphylococcus aureus by microdilution method; assay type: functional
# [11] = Therapeutic index, ratio of IC50 for human CCD-32Sk cells to MIC for Staphylococcus aureus 8235; assay type: cell-based; details: read-out: TI
# [12] = tested on: Staphylococcus epidermidis; test: Antimicrobial activity against Staphylococcus epidermidis RP62A by microdilution method; assay type: functional
# Staphylococcus aureus [13] = test: Antimicrobial activity against methicillin-resistant Staphylococcus aureus by microdilution method; assay type: functional
# Staphylococcus aureus [14] = test: Antimicrobial activity against methicillin-resistant Staphylococcus aureus ATCC 33591 grown as biofilms by microdilution method; assay type: functional
# Staphylococcus aureus [15] = test: Antimicrobial activity against Staphylococcus aureus isolate 8235 at >200 ug/ml by microdilution method in presence of 50 % human serum; assay type: functional, organism-based
# Staphylococcus aureus [16] = test: Antimicrobial activity against Staphylococcus aureus ATCC 29213 infected BALB/c mouse at 10 % administered topically 4 hrs post infection twice a day for 5 days; assay type: functional, organism-based
# Staphylococcus aureus [17] = test: Antimicrobial activity against Staphylococcus aureus ATCC 29213 infected BALB/c mouse at 2 % administered topically 4 hrs post infection twice a day for 5 days; assay type: functional, organism-based
# [18] = Homo sapiens, CCD-32Sk, 48 h, read-out: IC50
Compound,MIC (Staphylococcus aureus [1]) [µg/mL],FC (Staphylococcus aureus [2]),MIC (Staphylococcus aureus [4]),MBEC [5] [µg/mL],MBIC [5] [µg/mL],MIC50 (Streptococcus pyogenes) [µg/mL],MIC90 (Streptococcus pyogenes) [µg/mL],MBEC (Staphylococcus aureus [6]),MBIC (Staphylococcus aureus [6]) [µg/mL],MIC50 (Staphylococcus aureus [7]) [µg/mL],MIC90 (Staphylococcus aureus [7]) [µg/mL],MIC (Staphylococcus aureus [8]) [µg/mL],MIC (Staphylococcus aureus [9]) [µg/mL],MIC50 (Staphylococcus aureus [10]) [µg/mL],MIC90 (Staphylococcus aureus [10]) [µg/mL],selectivity ratio [11],MIC [12] [µg/mL],MIC50 (Staphylococcus aureus [13]) [µg/mL],MIC90 (Staphylococcus aureus [13]) [µg/mL],"IC50 [3, 18] [µg/mL]",also measured
CC1(C)S[C@@H]2[C@H](NC(=O)[C@H](N)c3ccc(O)cc3)C(=O)N2[C@H]1C(=O)O [AMOXICILLIN],12.5,2.6,inactive,–,–,–,–,–,–,–,–,–,–,–,–,–,–,–,–,–,IC50 ([3]; ccd-32sk): Not Active
CN[C@H](CC(C)C)C(=O)N[C@H]1C(=O)N[C@@H](CC(N)=O)C(=O)N[C@H]2C(=O)N[C@H]3C(=O)N[C@H](C(=O)N[C@H](C(=O)O)c4cc(O)cc(O)c4-c4cc3ccc4O)[C@H](O)c3ccc(c(Cl)c3)Oc3cc2cc(c3O[C@@H]2O[C@H](CO)[C@@H](O)[C@H](O)[C@H]2O[C@H]2C[C@](C)(N)[C@H](O)[C@H](C)O2)Oc2ccc(cc2Cl)[C@H]1O [VANCOMYCIN],–,–,0.8 µg/mL,>400,12.5,0.024,0.024,>400 µg/mL,3.12,0.12,0.2,0.8,1.6,> 200,> 200,> 25000,1.6,0.2,0.4,> 20000,MIC (Staphylococcus aureus [7]): 0.05 µg/mL; MBEC (Staphylococcus aureus [14]): >400 µg/mL; MBIC (Staphylococcus aureus [14]): 1.6 µg/mL
CCCCCCCCCCN1C(=O)/C(=C(/C)O)C(=O)[C@@H]1C(C)C,0.8,2.6,25 µg/mL,25,0.8,0.2,0.8,25 µg/mL,1.6,0.8,0.8,0.8,0.8,1.6,3.12,14.4,0.8,0.8,1.6,356,Activity (Staphylococcus aureus [15]): inactive; MBIC (Staphylococcus aureus [14]): 0.8 µg/mL
C/C(O)=C1\C(=O)[C@H](CC(C)C)N(CCC(C)C/C=C/C(C)C)C1=O (some centres not stated),0.8,2.6,25 µg/mL,200,0.4,0.4,0.8,50 µg/mL,3.12,0.8,1.6,0.8,0.8,0.8,1.6,10.2,0.8,0.8,1.6,256,Activity (Staphylococcus aureus [15]): inactive; MIC (Staphylococcus aureus [10]): 0.8 µg/mL; MBIC (Staphylococcus aureus [14]): 0.4 µg/mL
C/C(O)=C1\C(=O)[C@H](CC(C)C)N(CC2=CCC3CC2C3(C)C)C1=O (some centres not stated),1.6,2.6,25 µg/mL,>400,1.6,0.4,1.6,>=400 ug ml-1,6.2,1.6,3.12,1.6,1.6,3.12,3.12,15.1,3.12,3.12,3.12,377,MIC (Staphylococcus aureus [7]): 1.6 µg/mL; Activity (Staphylococcus aureus [15]): inactive; Activity (Staphylococcus aureus [16]): Active
CO[C@H]1/C=C/O[C@@]2(C)Oc3c(C)c(O)c4c(O)c(c(/C=N/N5CCN(C)CC5)c(O)c4c3C2=O)NC(=O)/C(C)=C\C=C\[C@H](C)[C@H](O)[C@@H](C)[C@@H](O)[C@@H](C)[C@H](OC(C)=O)[C@@H]1C [RIFAMPIN],–,–,–,50,<0.2,–,–,25 µg/mL,<0.2,–,–,0.006,0.012,–,–,–,0.012,–,–,–,MBEC (Staphylococcus aureus [14]): 6.25 µg/mL
C=C(NC(=O)[C@@H](NC(=O)[C@H](Cc1cnc[nH]1)NC(=O)[C@@H](NC(=O)[C@H](CO)NC(=O)[C@@H]1CS[C@@H](C)[C@H]2NC(=O)C(=C)NC(=O)[C@H](NC(=O)[C@H](CCCCN)NC(=O)[C@H](CCSC)NC(=O)[C@H](CC(N)=O)NC(=O)[C@@H]3CS[C@@H](C)[C@@H](NC(=O)[C@H](CCCNN)NC(=O)[C@@H]4CS[C@@H](C)[C@@H](NC(=O)[C@@H]5CSC[C@@H](NC(=O)/C(=C\C)NC(=O)[C@@H](N)[C@@H](C)CC)C(=O)N[C@@H]([C@@H](C)CC)C(=O)NC(=C)C(=O)N[C@@H]([C@@H](C)CC)C(=O)N5)C(=O)N5CCC[C@H]5C(=O)NCC(=O)N4)C(=O)NCC(=O)N[C@@H](C)C(=O)N[C@@H]([C@@H](C)CC)C(=O)N[C@@H](CCSC)C(=O)NCC(=O)N3)[C@H](C)SC[C@H](NC2=O)C(=O)N[C@H](Cc2cnc[nH]2)C(=O)N1)[C@@H](C)CC)C(C)C)C(=O)N[C@@H](CCCCN)C(=O)O [NISIN],–,2.6,inactive,–,–,–,–,–,–,–,–,–,–,–,–,–,–,–,–,–,IC50 ([3]; ccd-32sk): Not Active
C/C(=C\C(=O)OCCCCCCCCC(=O)O)C[C@@H]1OC[C@H](C[C@@H]2O[C@H]2[C@@H](C)[C@H](C)O)[C@@H](O)[C@H]1O [MUPIROCIN],–,–,12.5 µg/mL,>400,<0.2,0.4,0.4,>400 µg/mL,<0.2,0.8,0.8,0.1,0.06,0.8,0.8,> 1600,0.12,0.8,3.12,> 20000,Activity (Staphylococcus aureus [17]): Active; Activity (Staphylococcus aureus [15]): inactive
C/C(O)=C1\C(=O)[C@H](CC(C)C)N(Cc2ccc(-c3ccccc3)cc2)C1=O,0.8,2.6,25 µg/mL,200,1.6,0.2,0.8,100 µg/mL,3.12,0.8,1.6,0.8,0.8,1.6,1.6,21.2,0.8,1.6,1.6,529,MIC (Staphylococcus aureus [7]): 0.8 µg/mL; Activity (Staphylococcus aureus [15]): inactive; MBIC (Staphylococcus aureus [14]): 0.8 µg/mL
CCCCCCCCCCN1C(=O)/C(=C(/C)O)C(=O)[C@@H]1CC(C)C,0.8,2.6,25 µg/mL,50,0.4,0.2,0.8,50 µg/mL,3.12,0.4,0.8,0.8,0.8,0.8,1.6,12.3,0.4,0.8,1.6,308,MIC (Staphylococcus aureus [7]): 0.4 µg/mL; Activity (Staphylococcus aureus [15]): inactive; MBEC (Staphylococcus aureus [14]): 6.25 µg/mL; MBIC (Staphylococcus aureus [14]): 0.8 µg/mL; Activity (Staphylococcus aureus [16]): Active
